Results: article PMC8026400, “Osmium–arene complexes with high potency towards Mycobacterium tuberculosis” (Metallomics: Integrated Biometal Science, 2021)
Values after ≈ are worked out from the molar mass of the structure shown.

Tests used:
Mtb H37Rv = experiment: MIC against Mtb H37Rv, resazurin microtitre assay; type: cell-based, Mycobacterium tuberculosis; conditions: 7-day exposure, Middlebrook 7H9 broth, 0.2% glycerol, 0.05% Tween 80, 10% ADC, three biological repeats
[1] = test system: MRC5 (human foetal lung fibroblast) cells; experiment: Antiproliferative activity against human cell line, SRB assay; type: cell-based; conditions: 24 h drug exposure and 72 h recovery in drug-free medium
Method: MRC5 (human foetal lung fibroblast) cell lines were obtained from Public Health England (mycoplasma-free status confirmed at six-monthly intervals by internal and external screening). They were thawed upon receipt and the supernatant removed after centrifugation (1000 rpm, 5 min). Cells were re-suspended in DMEM culture medium (supplemented with 10% v/v FCS, 1% penicillin/streptomycin, and 1% L-glutamine) and grown as adherent monolayers at 310 K in a 5% CO2 humidified atmosphere. Cells were passaged using trypsin/EDTA after reaching ∼90% confluence. Trypsin activity was quenched by addition of excess medium, and the single-cell suspension passaged twice weekly. MRC5 fibroblasts were discarded after five passages.
Briefly, 5 × 10^3 cells (MRC5) were seeded in a 96-well plate using 0.15 mL of culture medium. After 48 h pre-incubation at 310 K, the supernatant was removed and cells exposed to six concentrations (0–100 µM) of osmium complex, for which exact concentrations were determined using ICP-OES (calibration standards for Os freshly prepared in 3.6% v/v nitric acid containing 100 mg L^–1 ascorbic acid and 10 mM thiourea). DMSO was used to aid solubility of Os complexes, but never exceeded 0.5% v/v in the final culture medium. Cells were exposed to Os complexes for 24 h, and then washed with PBS and allowed 72 h recovery time in drug-free medium. Cell viability was determined using the sulforhodamine B (SRB) assay. Cells were fixed using 50 µL of 50% TCA, incubated at 277 K for 1 h, and then stained using SRB dye (0.4% dye in 1% acetic acid). After 30 min, excess dye was removed by acetic acid washing, and then the stain liberated using Tris base (10 mM, pH 10.5). Absorbance was measured using a Thermo Scientific Multiskan FC microplate reader fitted with a 492-nm filter. Data were processed using Microsoft Excel and are reported as percentage survival relative to the untreated control. Sigmoidal dose/response curves were fitted using Origin 2016 to determine IC50. Data were acquired as duplicate of triplicate experiments, with a positive control of cisplatin (CDDP).

Mtb [2] = experiment: Minimum bactericidal concentration against Mtb (CFU plating); type: cell-based, Mycobacterium tuberculosis; conditions: for bactericidal character against actively growing Mtb: from correlation of MBC with MIC; for MBC (minimal bactericidal concentration): lowest concentration with no CFUs on 7H10 medium
Method: The minimum bactericidal activity (MBC) was determined by setting up a microtitre plate as performed for the MIC determination. Instead of adding resazurin, each well from the microtitre plate was plated on to solid 7H10 medium and the CFUs were determined after incubation at 37°C. The lowest concentration at which no CFUs were counted was taken as the MBC. The MBCs were carried out with three independent experimental repeats.

Mtb [3] = conditions: comparison values, no reference given; cited from earlier work

Row | Compound | MIC (Mtb H37Rv) | IC50 [1] | other results
1 | CN(C)c1ccc(N=Nc2ccccn2)cc1.Cc1ccc(C(C)C)cc1.F[P-](F)(F)(F)(F)F.[Cl][Os+] [Complex 1] | 5 µM | 7.1 ± 0.2 µM | bactericidal character against actively growing Mtb (Mtb [2]): bactericidal; MBC (minimal bactericidal concentration) (Mtb [2]): 12.5 µM
2 | CN(C)c1ccc(N=Nc2ccccn2)cc1.Cc1ccc(C(C)C)cc1.F[P-](F)(F)(F)(F)F.[I][Os+] [Complex 2, [Os(AzPy-NMe2)I(p-cymene)]PF6] | 1.25 µM | 0.89 ± 0.01 µM | MBC (minimal bactericidal concentration) (Mtb [2]): 6.25 µM
3 | CN(C)c1ccc(N=Nc2ccccn2)cc1.F[P-](F)(F)(F)(F)F.[Cl][Os+].c1ccc(-c2ccccc2)cc1 [Complex 3] | 31.25 µM | 16.9 ± 0.1 µM | –
4 | CN(C)c1ccc(N=Nc2ccccn2)cc1.F[P-](F)(F)(F)(F)F.[I][Os+].c1ccc(-c2ccccc2)cc1 [Complex 4] | 2.5 µM | 0.42 ± 0.03 µM | bactericidal character against actively growing Mtb (Mtb [2]): bactericidal; MBC (minimal bactericidal concentration) (Mtb [2]): 6.25 µM
5 | CN(C)c1ccc(N=Cc2ccccn2)cc1.Cc1ccc(C(C)C)cc1.F[P-](F)(F)(F)(F)F.[Cl][Os+] [Complex 5] | 31.25 µM | 7.6 ± 0.9 µM | –
6 | CN(C)c1ccc(N=Cc2ccccn2)cc1.Cc1ccc(C(C)C)cc1.F[P-](F)(F)(F)(F)F.[I][Os+] [Complex 6] | 7.81 µM | 13 ± 2 µM | –
7 | CN(C)c1ccc(N=Nc2ccccn2)cc1.Cc1ccc(C(C)C)cc1.[Cl-].[I][Os+] [Complex 7] | 1.25 µM | 0.68 ± 0.03 µM | –
8 | CN(C)c1ccc(N=Nc2ccccn2)cc1.Cc1ccc(C(C)C)cc1.[I-].[I][Os+] [Complex 8] | 1.25 µM | 0.42 ± 0.01 µM | –
9 | Cc1ccc(C(C)C)cc1.F[P-](F)(F)(F)(F)F.[Cl][Os+].c1ccc(N=Nc2ccccn2)cc1 [Complex 9] | 15.6 µM | 15 ± 2 µM | –
10 | Cc1ccc(C(C)C)cc1.F[P-](F)(F)(F)(F)F.[I][Os+].c1ccc(N=Nc2ccccn2)cc1 [Complex 10] | 5 µM | 0.79 ± 0.06 µM | –
11 | Brc1ccc(N=Nc2ccccc2)nc1.Cc1ccc(C(C)C)cc1.F[P-](F)(F)(F)(F)F.[Cl][Os+] [Complex 11] | 125 µM | 18 ± 1 µM | –
12 | Cc1ccc(C(C)C)cc1.F[P-](F)(F)(F)(F)F.Fc1ccc(N=Nc2ccccc2)nc1.[I][Os+] [Complex 12] | 15.6 µM | 9.1 ± 0.6 µM | –
13 | F[P-](F)(F)(F)(F)F.Fc1ccc(N=Nc2ccccc2)nc1.[I][Os+].c1ccc(-c2ccccc2)cc1 [Complex 13] | 62.5 µM | 5.2 ± 0.7 µM | –
14 | Cc1ccc(C(C)C)cc1.Clc1ccc(N=Nc2ccccc2)nc1.F[P-](F)(F)(F)(F)F.[I][Os+] [Complex 14] | 62.5 µM | 16 ± 2 µM | –
15 | F[P-](F)(F)(F)(F)F.Oc1ccc(N=Cc2ccccn2)cc1.[I][Os+].c1ccc(-c2ccccc2)cc1 [Complex 15] | 5 µM | 13.5 ± 0.9 µM | –
16 | CO[C@H]1/C=C/O[C@@]2(C)Oc3c(C)c(O)c4c(O)c(c(/C=N/N5CCN(C)CC5)c(O)c4c3C2=O)NC(=O)/C(C)=C\C=C\[C@H](C)[C@H](O)[C@@H](C)[C@@H](O)[C@@H](C)[C@H](OC(C)=O)[C@@H]1C [Rifampicin, reference compound] | – | – | MIC (Mtb H37Rv; Mycobacterium tuberculosis, H37RV, 168 h): 0.38 to 0.76 µM (≈ 0.313 to 0.625 µg/mL)
17 | CC[C@@H](CO)NCCN[C@@H](CC)CO [ethambutol] | – | – | MIC of current clinical TB drugs (Mtb [3]): ~5 µM
18 | NNC(=O)c1ccncc1 [isoniazid] | – | – | MIC of current clinical TB drugs (Mtb [3]): ~1 µM
19 | [H]/N=C(/N)N[C@H]1[C@H](O)[C@@H](O)[C@H](O[C@@H]2O[C@@H](C)[C@](O)(C=O)[C@H]2O[C@@H]2O[C@@H](CO)[C@H](O)[C@@H](O)[C@@H]2NC)[C@@H](N/C(N)=N\[H])[C@@H]1O [streptomycin] | – | – | MIC of current clinical TB drugs (Mtb [3]): ~9 µM
20 | capreomycin | – | – | MIC of current clinical TB drugs (Mtb [3]): ~3 µM
